Patent US20220313698A1, “MODULATORS OF CYSTIC FIBROSIS TRANSMEMBRANE CONDUCTANCE REGULATOR” (Vertex Pharmaceuticals Incorporated, priority 2019, published 2022)

Biological target: CFTR-mediated chloride transport (Homo sapiens, UniProt P13569)
Assay: Corrector Assay A - membrane potential dye assay (enteroid cells)
Settings: for Corrector Assay A % activity: % of chloride transport of triple combination control (1 μM (14S)-dispiro macrocycle + 3 μM tezacaftor + 300 nM ivacaftor); for EC50: read-out: Corrector Assay A EC50, human intestinal enteroid cells, 18-24 h incubation, acute 10 μM forskolin + 300 nM ivacaftor

Row | Corrector Assay A % activity | EC50 [nM] | Compound
1 | ++ (++ is 30-60%) | < 1000 | CN1CCN(c2cccc([C@@H]3CC[C@@H]4CN(c5nc(C(C)(C)C)ccc5C(=O)NS(=O)(=O)c5cccc(n5)N3)C(C)(C)C4)n2)CC1 [Compound 194]
2 | +++ (+++ is >60%) | < 1000 | CC(C)(C)c1ccc2c(n1)N1C[C@@H](CC[C@@H](c3ncccc3Br)Nc3cccc(n3)S(=O)(=O)NC2=O)CC1(C)C (single isomer, unassigned) [Compound 53]
3 | ++ (++ is 30-60%) | < 1000 | CC(C)(C)c1ccc2c(n1)N1CC(CCCOc3cccc(c3)S(=O)(=O)NC2=O)CC1(C)C (single isomer, unassigned) [Compound 256, 8-tert-butyl-12,12-dimethyl-18-oxa-2λ^6-thia-3,9,11-triazatetracyclo[17.3.1.111,14.05,10]tetracosa-1(22),5,7,9,19(23),20-hexaene-2,2,4-trione]
4 | +++ (+++ is >60%) | < 1000 | CC1(C)C[C@@H]2CC[C@H](c3ccccn3)Nc3cccc(n3)S(=O)(=O)NC(=O)c3ccc(-c4c(F)cccc4Cl)nc3N1C2 [Compound 343]
5 | +++ (+++ is >60%) | < 1000 | Cn1cc(C2CC[C@@H]3CN(c4nc(C(C)(C)C)ccc4C(=O)NS(=O)(=O)c4cccc(n4)N2)C(C)(C)C3)cn1 (single isomer, unassigned) [Compound 280]
6 | ++ (++ is 30-60%) | < 1000 | CN(C)Cc1cccc([C@H]2CC[C@@H]3CN(c4nc(C(C)(C)C)ccc4C(=O)NS(=O)(=O)c4cccc(n4)N2)C(C)(C)C3)n1 [Compound 99]
7 | +++ (+++ is >60%) | 1000 to 3000 | CN1CCN(c2ccc3c(n2)N2C[C@@H](CC[C@H](c4ccccn4)Nc4cccc(n4)S(=O)(=O)NC3=O)CC2(C)C)C1=O [Compound 333]
8 | ++ (++ is 30-60%) | < 1000 | CC(C)(C)c1ccc2c(n1)N1C[C@@H](CCC(c3ccc(Cl)cn3)Nc3cccc(n3)S(=O)(=O)NC2=O)CC1(C)C (single isomer, unassigned) [Compound 209]
9 | + (+ is <30%) |  | CC(C)CN1c2cccc(n2)S(=O)(=O)NC(=O)c2ccc(C(C)(C)C)nc2N2C[C@@H](CC[C@H]1c1ccccc1)CC2(C)C (single isomer, unassigned) [Compound 271]
10 | ++ (++ is 30-60%) | < 1000 | CC(C)(C)c1ccc2c(n1)N1C[C@@H](CC[C@@H](c3cc(C4CCOCC4)ccn3)Nc3cccc(n3)S(=O)(=O)NC2=O)CC1(C)C (single isomer, unassigned) [Compound 122]
11 | +++ (+++ is >60%) | < 1000 | CC(C)(C)c1ccc2c(n1)N1C[C@@H](CC[C@H](c3cccc(C4CCOCC4)n3)Nc3cccc(n3)S(=O)(=O)NC2=O)CC1(C)C [Compound 148]
12 | +++ (+++ is >60%) | < 1000 | CC(C)(C)COc1cccc(-c2ccc3c(n2)N2C[C@@H](CC[C@H](c4ccccn4)Nc4cccc(n4)S(=O)(=O)NC3=O)CC2(C)C)n1 [Compound 312]
13 | +++ (+++ is >60%) | < 1000 | CC1(C)C[C@@H]2CC[C@H](c3ccccn3)Nc3cccc(n3)S(=O)(=O)NC(=O)c3ccc(-c4cccc(OCC5CC5)n4)nc3N1C2 [Compound 314]
14 | ++ (++ is 30-60%) | < 1000 | CC(C)n1cc(-c2ccc3c(n2)N2C[C@@H](CC[C@H](c4ccccn4)Nc4cccc(n4)S(=O)(=O)NC3=O)CC2(C)C)cn1 [Compound 346]
15 | ++ (++ is 30-60%) | < 1000 | CC(C)(C)c1cccc(C2CC[C@@H]3CN(c4nc(C(C)(C)C)ccc4C(=O)NS(=O)(=O)c4cccc(n4)N2)C(C)(C)C3)n1 (single isomer, unassigned) [Compound 179]
16 | +++ (+++ is >60%) | < 1000 | CC(C)=Cc1ccc(C2CC[C@@H]3CN(c4nc(C(C)(C)C)ccc4C(=O)NS(=O)(=O)c4cccc(n4)N2)C(C)(C)C3)nc1 (some centres unmarked) [Compound 182]
17 | ++ (++ is 30-60%) | < 1000 | CC(C)=Cc1ccc(C2CC[C@@H]3CN(c4nc(C(C)(C)C)ccc4C(=O)NS(=O)(=O)c4cccc(n4)N2)C(C)(C)C3)nc1 (stereo partly drawn) [Compound 183, (14S)-8-tert-Butyl-12,12-dimethyl-17-[5-(2-methylprop-1-en-1-yl)pyridin-2-yl]-2λ^6-thia-3,9,11,18,23-pentaazatetracyclo[17.3.1.111,14.05,10]tetracosa-1(23),5(10),6,8,19,21-hexaene-2,2,4-trione]

Row | Corrector Assay A % activity | EC50 [nM] | Compound
18 | + (+ is <30%) | > 3000 | CC(C)(C)c1ccc2c(n1)N1C[C@@H](CC[C@@H](c3cccc(CCC#N)n3)Nc3cccc(n3)S(=O)(=O)NC2=O)CC1(C)C [Compound 139]
19 | + (+ is <30%) | < 1000 | CC(C)(C)c1ccc2c(n1)N1C[C@@H](CC[C@@H](c3cccc(CCCN)n3)Nc3cccc(n3)S(=O)(=O)NC2=O)CC1(C)C [Compound 133]
20 | +++ (+++ is >60%) | < 1000 | COC[C@@H]1CC[C@@H]2CN(c3nc(C(C)(C)C)ccc3C(=O)NS(=O)(=O)c3cccc(n3)N1)C(C)(C)C2 (single isomer, unassigned) [Compound 277]
21 | ++ (++ is 30-60%) | < 1000 | CC(C)(C)c1ccc2c(n1)N1C[C@@H](CCC(c3ccccc3)n3ccc(n3)S(=O)(=O)NC2=O)CC1(C)C (single isomer, unassigned) [Compound 274]
22 | ++ (++ is 30-60%) | < 1000 | CC(C)(C)c1ccc(C2CC[C@@H]3CN(c4nc(C(C)(C)C)ccc4C(=O)NS(=O)(=O)c4cccc(n4)N2)C(C)(C)C3)nc1 (single isomer, unassigned) [Compound 187]
23 | + (+ is <30%) | < 1000 | CC(C)(C)c1ccc2c(n1)N1C[C@@H](CC[C@@H](c3ccc(C(F)(F)F)cn3)Nc3cccc(n3)S(=O)(=O)NC2=O)CC1(C)C (single isomer, unassigned) [Compound 81]
24 | ++ (++ is 30-60%) | < 1000 | CC(C)(C)c1ccc2c(n1)N1C[C@@H](CCC(C)(c3ccccn3)Nc3cccc(n3)S(=O)(=O)NC2=O)CC1(C)C (single isomer, unassigned) [Compound 44]
25 | +++ (+++ is >60%) | < 1000 | CC(C)(C)c1ccc2c(n1)N1C[C@@H](CCC(c3cc(CCCN)ccn3)Nc3cccc(n3)S(=O)(=O)NC2=O)CC1(C)C (single isomer, unassigned) [Compound 109]
26 | +++ (+++ is >60%) | < 1000 | CC(C)(C)c1ccc2c(n1)N1C[C@@H](CC[C@@H](c3cc(-c4cn[nH]c4)ccn3)Nc3cccc(n3)S(=O)(=O)NC2=O)CC1(C)C (single isomer, unassigned) [Compound 68]
27 | +++ (+++ is >60%) | < 1000 | CC1(C)CCC(c2ccc3c(n2)N2C[C@@H](CC[C@H](c4ccccn4)Nc4cccc(n4)S(=O)(=O)NC3=O)CC2(C)C)CC1 [Compound 326]
28 | +++ (+++ is >60%) | < 1000 | CC(C)(C)c1ccc2c(n1)N1C[C@@H](CCC(c3ccc(N)cn3)Nc3cccc(n3)S(=O)(=O)NC2=O)CC1(C)C (some centres unmarked) [Compound 63]
29 | +++ (+++ is >60%) | < 1000 | CC(C)(C)c1ccc2c(n1)N1C[C@@H](CC[C@@H](c3ncccn3)Nc3cccc(n3)S(=O)(=O)NC2=O)CC1(C)C (single isomer, unassigned) [Compound 207]
30 | ++ (++ is 30-60%) | < 1000 | CC(C)(C)c1ccc2c(n1)N1C[C@@H](CCC(c3ccncc3)Nc3cccc(n3)S(=O)(=O)NC2=O)CC1(C)C (single isomer, unassigned) [Compound 233]
31 | +++ (+++ is >60%) | < 1000 | CN1c2cccc(n2)S(=O)(=O)NC(=O)c2ccc(C(C)(C)C)nc2N2C[C@@H](CC[C@H]1c1ccccc1)CC2(C)C [Compound 262]
32 | +++ (+++ is >60%) | < 1000 | CC(C)(C)c1ccc2c(n1)N1C[C@@H](CCC(CCCC(=O)NCc3ccccc3)Nc3cccc(n3)S(=O)(=O)NC2=O)CC1(C)C (stereo partly drawn) [Compound 15, N-benzyl-4-[(14S)-8-tert-butyl-12,12-dimethyl-2,2,4-trioxo-2λ^6-thia-3,9,11,18,23-pentaazatetracyclo[17.3.1.111,14.05,10]tetracosa-1(23),5(10),6,8,19,21-hexaen-17-yl]butanamide]
33 | +++ (+++ is >60%) | < 1000 | CC1(C)C[C@@H]2CC[C@H](c3ccccn3)Nc3cccc(n3)S(=O)(=O)NC(=O)c3ccc(C4CCC(F)(F)CC4)nc3N1C2 [Compound 324, (14S,17R)-8-(4,4-Difluorocyclohexyl)-12,12-dimethyl-17-(pyridin-2-yl)-2λ^6-thia-3,9,11,18,23-pentaazatetracyclo[17.3.1.111,14.05,10]tetracosa-1(22),5,7,9,19(23),20-hexaene-2,2,4-trione]
